Target: Aspartate aminotransferase (AAT) (Escherichia coli, UniProt P00509)
Assay: N-15 NMR of crystalline enzyme
Assay type: binding
Settings: PLP form, low pH; closed conformation; own earlier work reviewed

Chain of Aspartate aminotransferase (AAT) (P00509 whole entry): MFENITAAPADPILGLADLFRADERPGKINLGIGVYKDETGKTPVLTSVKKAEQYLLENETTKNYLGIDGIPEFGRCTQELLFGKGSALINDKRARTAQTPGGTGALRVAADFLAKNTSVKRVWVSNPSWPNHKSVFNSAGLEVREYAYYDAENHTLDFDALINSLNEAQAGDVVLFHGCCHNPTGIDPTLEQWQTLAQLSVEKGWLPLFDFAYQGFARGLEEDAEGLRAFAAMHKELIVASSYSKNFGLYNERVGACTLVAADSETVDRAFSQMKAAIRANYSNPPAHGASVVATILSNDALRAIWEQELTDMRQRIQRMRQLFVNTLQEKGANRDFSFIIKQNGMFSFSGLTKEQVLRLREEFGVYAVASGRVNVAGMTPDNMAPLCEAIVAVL

O=C(O)/C=C\C(=O)O [maleate]
N-15 NMR of crystalline enzyme: In crystalline samples of both the unliganded and maleate-liganded enzyme forms at low pH

— article PMC3946379 (Archives of biochemistry and biophysics, 2013)
